We go through 21 compounds from patent US12365692B2, “6-hydroxy-8-oxatricyclo[3.2.1.02,4]octane-2-carboxamide derivatives for inducing chondrogenesis for treating joint damage” (NOVARTIS AG, priority 2018, dated 2025).

This experiment has as its system ALP in NHAC (normal human articular chondrocytes). In words: Alkaline Phosphatase (ALP) activity assay: ALP staining and quantitation in NHACs (prevention of chondrocyte hypertrophy). In kind it is cell-based. To be noted: Chondrocyte, 288 h, human IL-1 beta 10 ng/mL, 12 days; for pIC50: Fast Blue RR staining, high content imaging; for Emax: read-out: ALP in NHAC (% Efficacy). A digest of the protocol:
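NHACs were plated with test compound in DMEM containing 10% FBS, and human IL-1 beta was added 5 h later at 10 ng/mL final. Cultures were kept 12 days at 37° C, 5% CO2. Cells were then fixed, ALP-stained with Fast Blue RR/Naphthol AS-MX, and hypertrophic cells were imaged and quantified by high-content imaging.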

pIC50: −log10 of the molar value.

As to `Cn1cc([C@@]23C[C@]2(C(=O)Nc2cc(Cl)cc(C(F)(F)F)c2)[C@H]2C[C@H](O)[C@@H]3O2)c(C(F)(F)F)n1` (racemic) [Example 59, rac-(1R,2R,4S,5R,6S)-N-(3-chloro-5-(trifluoromethyl)phenyl)-6-hydroxy-4-(1-methyl-3-(trifluoromethyl)-1H-pyrazol-4-yl)-8-oxatricyclo[3.2.1.02,4]octane-2-carboxamide], the pIC50 is under 4.52 and the Emax amounted to 35%.
The corresponding values for `COc1ccc(NC(=O)[C@]23C[C@@]2(c2cn(C)nc2C(F)(F)F)[C@H]2O[C@@H]3C[C@@H]2O)cc1C(F)(F)F` (racemic) [Example 60, rac-(1R,2R,4S,5R,6S)-6-hydroxy-N-(4-methoxy-3-(trifluoromethyl)phenyl)-4-(1-methyl-3-(trifluoromethyl)-1H-pyrazol-4-yl)-8-oxatricyclo[3.2.1.02,4]octane-2-carboxamide] are under 4.52 and 27%.
Consider `COc1cc(NC(=O)[C@]23C[C@@]2(c2cn(C)nc2C(F)(F)F)[C@H]2O[C@@H]3C[C@@H]2O)cc(C(F)(F)F)c1` (racemic) [Example 61, rac-(1R,2R,4S,5R,6S)-6-hydroxy-N-(3-methoxy-5-(trifluoromethyl)phenyl)-4-(1-methyl-3-(trifluoromethyl)-1H-pyrazol-4-yl)-8-oxatricyclo[3.2.1.02,4]octane-2-carboxamide], for which the pIC50 was under 4.52 and the Emax is 29%.
As to `COc1ccc(C(F)(F)F)cc1NC(=O)[C@]12C[C@@]1(c1cn(C)nc1C(F)(F)F)[C@H]1O[C@@H]2C[C@@H]1O` (racemic) [Example 62, rac-(1R,2R,4S,5R,6S)-6-hydroxy-N-(2-methoxy-5-(trifluoromethyl)phenyl)-4-(1-methyl-3-(trifluoromethyl)-1H-pyrazol-4-yl)-8-oxatricyclo[3.2.1.02,4]octane-2-carboxamide], the pIC50 is under 4.52 and the Emax was determined as 26%.
The corresponding values for `Cn1cc([C@@]23C[C@]2(C(=O)Nc2cc(C(F)(F)F)cc(C(F)(F)F)c2)[C@H]2C[C@H](O)[C@@H]3O2)c(C(F)(F)F)n1` (racemic) [Example 63, rac-(1R,2R,4S,5R,6S)—N-(3,5-bis(trifluoromethyl)phenyl)-6-hydroxy-4-(1-methyl-3-(trifluoromethyl)-1H-pyrazol-4-yl)-8-oxatricyclo[3.2.1.02,4]octane-2-carboxamide] are 4.54 and 56%.
For `Cn1cc([C@@]23C[C@]2(C(=O)Nc2ccc(N4CCOCC4)c(C(F)(F)F)c2)[C@H]2C[C@H](O)[C@@H]3O2)c(C(F)(F)F)n1` (racemic) [Example 64, rac-(1R,2R,4S,5R,6S)-6-hydroxy-4-(1-methyl-3-(trifluoromethyl)-1H-pyrazol-4-yl)-N-(4-morpholino-3-(trifluoromethyl)phenyl)-8-oxatricyclo[3.2.1.02,4]octane-2-carboxamide], the pIC50 is under 4.52 and the Emax came to 28%.
With `CCOc1ccc(NC(=O)[C@]23C[C@@]2(c2cn(C)nc2C(F)(F)F)[C@H]2O[C@@H]3C[C@@H]2O)cc1C(F)(F)F` (racemic) [Example 65, rac-(1R,2R,4S,5R,6S)—N-(4-ethoxy-3-(trifluoromethyl)phenyl)-6-hydroxy-4-(1-methyl-3-(trifluoromethyl)-1H-pyrazol-4-yl)-8-oxatricyclo[3.2.1.02,4]octane-2-carboxamide], the pIC50 is 4.92 and the Emax amounted to 84%.
Turning to `O=C(Nc1cccc(C(F)(F)F)c1)[C@]12C[C@@]1(c1ccnc(C(F)(F)F)c1)[C@H]1O[C@@H]2C[C@@H]1O` (racemic) [Example 66, rac-(1R,2R,4S,5R,6S)-6-hydroxy-N-(3-(trifluoromethyl)phenyl)-4-(2-(trifluoromethyl)pyridin-4-yl)-8-oxatricyclo[3.2.1.02,4]octane-2-carboxamide], the negative logarithm of the IC50 (pIC50) was 4.62 and the Emax was found to be 62%.
In the same order, the values of `O=C(Nc1cccc(C(F)(F)F)c1)[C@]12C[C@@]1(c1cccc(C(F)(F)F)c1)[C@H]1O[C@@H]2C[C@@H]1O` (racemic) [Example 67, rac-(1R,2R,4S,5R,6S)-6-hydroxy-N,4-bis(3-(trifluoromethyl)phenyl)-8-oxatricyclo[3.2.1.02,4]octane-2-carboxamide] are 4.57 and 54%.
In the same order, the values of `Cn1cc([C@@]23C[C@]2(C(=O)Nc2ccc(C#N)c(C(F)(F)F)c2)[C@H]2C[C@H](O)[C@@H]3O2)c(C(F)(F)F)n1` (racemic) [Example 68, rac-(1R,2R,4S,5R,6S)—N-(4-cyano-3-(trifluoromethyl)phenyl)-6-hydroxy-4-(1-methyl-3-(trifluoromethyl)-1H-pyrazol-4-yl)-8-oxatricyclo[3.2.1.02,4]octane-2-carboxamide] are under 4.52 and 50%.
The corresponding values for `Cn1cc([C@@]23C[C@]2(C(=O)Nc2cc(C(F)(F)F)ccc2C#N)[C@H]2C[C@H](O)[C@@H]3O2)c(C(F)(F)F)n1` (racemic) [Example 69, rac-(1R,2R,4S,5R,6S)—N-(2-cyano-5-(trifluoromethyl)phenyl)-6-hydroxy-4-(1-methyl-3-(trifluoromethyl)-1H-pyrazol-4-yl)-8-oxatricyclo[3.2.1.02,4]octane-2-carboxamide] are 5.74 and 88%.
Consider `COc1cc([C@@]23C[C@]2(C(=O)Nc2ccc(Cl)c(C(F)(F)F)c2)[C@H]2C[C@H](O)[C@@H]3O2)ccn1` (racemic) [Example 70, rac-(1R,2R,4S,5R,6S)—N-(4-chloro-3-(trifluoromethyl)phenyl)-6-hydroxy-4-(2-methoxypyridin-4-yl)-8-oxatricyclo[3.2.1.02,4]octane-2-carboxamide], for which the pIC50 was under 4.52 and the Emax amounted to 39%.
For the compound `COc1cc([C@@]23C[C@]2(C(=O)Nc2cc(Cl)cc(C(F)(F)F)c2)[C@H]2C[C@H](O)[C@@H]3O2)ccn1` (racemic) [Example 71, rac-(1R,2R,4S,5R,6S)—N-(3-chloro-5-(trifluoromethyl)phenyl)-6-hydroxy-4-(2-methoxypyridin-4-yl)-8-oxatricyclo[3.2.1.02,4]octane-2-carboxamide], the pIC50 is under 4.52 and the Emax is 9%.
In the same order, the values of `COc1cc([C@@]23C[C@]2(C(=O)Nc2cc(C#N)cc(C(F)(F)F)c2)[C@H]2C[C@H](O)[C@@H]3O2)ccn1` (racemic) [Example 72, rac-(1R,2R,4S,5R,6S)—N-(3-cyano-5-(trifluoromethyl)phenyl)-6-hydroxy-4-(2-methoxypyridin-4-yl)-8-oxatricyclo[3.2.1.02,4]octane-2-carboxamide] are under 4.52 and 37%.
The corresponding values for `COc1cc([C@@]23C[C@]2(C(=O)Nc2cc(F)cc(C(F)(F)F)c2)[C@H]2C[C@H](O)[C@@H]3O2)ccn1` (racemic) [Example 73, rac-(1R,2R,4S,5R,6S)—N-(3-fluoro-5-(trifluoromethyl)phenyl)-6-hydroxy-4-(2-methoxypyridin-4-yl)-8-oxatricyclo[3.2.1.02,4]octane-2-carboxamide] are under 4.52 and 49%.
In the same order, the values of `COc1cc([C@@]23C[C@]2(C(=O)Nc2ccc(C(F)(F)F)c(Cl)c2)[C@H]2C[C@H](O)[C@@H]3O2)ccn1` (racemic) [Example 74, rac-(1R,2R,4S,5R,6S)—N-(3-chloro-4-(trifluoromethyl)phenyl)-6-hydroxy-4-(2-methoxypyridin-4-yl)-8-oxatricyclo[3.2.1.02,4]octane-2-carboxamide] are 5.47 and 77%.
In the case of `COc1cc([C@@]23C[C@]2(C(=O)Nc2ccc(C(F)(F)F)c(F)c2)[C@H]2C[C@H](O)[C@@H]3O2)ccn1` (racemic) [Example 75, rac-(1R,2R,4S,5R,6S)—N-(3-fluoro-4-(trifluoromethyl)phenyl)-6-hydroxy-4-(2-methoxypyridin-4-yl)-8-oxatricyclo[3.2.1.02,4]octane-2-carboxamide], the pIC50 was under 4.52 and the Emax stood at 26%.
In the same order, the values of `COc1cc([C@@]23C[C@]2(C(=O)Nc2ccc(C(F)(F)F)cc2)[C@H]2C[C@H](O)[C@@H]3O2)ccn1` (racemic) [Example 76, rac-(1R,2R,4S,5R,6S)-6-hydroxy-4-(2-methoxypyridin-4-yl)-N-(4-(trifluoromethyl)phenyl)-8-oxatricyclo[3.2.1.02,4]octane-2-carboxamide] are 4.82 and 57%.
The corresponding values for `N#Cc1cc(NC(=O)[C@]23C[C@@]2(c2ccnc(F)c2)[C@H]2O[C@@H]3C[C@@H]2O)cc(C(F)(F)F)c1` (racemic) [Example 77, rac-(1R,2R,4S,5R,6S)—N-(3-cyano-5-(trifluoromethyl)phenyl)-4-(2-fluoropyridin-4-yl)-6-hydroxy-8-oxatricyclo[3.2.1.02,4]octane-2-carboxamide] are under 4.52 and 29%.
The corresponding values for `N#Cc1ccc(C(F)(F)F)cc1NC(=O)[C@]12C[C@@]1(c1ccnc(F)c1)[C@H]1O[C@@H]2C[C@@H]1O` (racemic) [Example 78, rac-(1R,2R,4S,5R,6S)—N-(2-cyano-5-(trifluoromethyl)phenyl)-4-(2-fluoropyridin-4-yl)-6-hydroxy-8-oxatricyclo[3.2.1.02,4]octane-2-carboxamide] are under 4.52 and 40%.
On to `N#Cc1ccc(NC(=O)[C@]23C[C@@]2(c2cccc(C(F)(F)F)c2)[C@H]2O[C@@H]3C[C@@H]2O)cc1C(F)(F)F` (racemic) [Example 79, rac-(1R,2R,4S,5R,6S)—N-(4-cyano-3-(trifluoromethyl)phenyl)-6-hydroxy-4-(3-(trifluoromethyl)phenyl)-8-oxatricyclo[3.2.1.02,4]octane-2-carboxamide], for which the pIC50 is 5.00 and the Emax turned out to be 78%.
